{"source": "patent US20250255883A1", "about": "“Compositions and Methods for Treating Aging Hair” (CHL Industries, LLC, priority 2021, published 2025)", "tested_on": "Normal human keratinocytes (HEKa)", "assay": "Real-time quantitative PCR gene expression in normal human keratinocytes treated for 24 hours", "type": "cell-based", "data": [{"smiles": "C=CC1=C(C)C2=CC3=NC(=C(CC(=O)[O-])C4=NC(=C(C)C4=C([O-])[O-])C=c4[n-]c(c(C)c4CC)=CC1=N2)[C@@H](CCC(=O)[O-])[C@@H]3C.[Cu+2].[Na+].[Na+].[Na+]", "note": "[TCCE6, trisodium copper (II) chlorin e6]", "values": [{"measurement": "Fold Up- or Down-Regulation 18S", "setting": "gene 18S (housekeeping), 20 ug/mL, vs. water-treated control", "value": 1.1, "unit": "Fold"}, {"measurement": "Fold Up- or Down-Regulation AQP3", "setting": "gene AQP3, 20 ug/mL, vs. water-treated control", "value": 1.7, "unit": "Fold"}, {"measurement": "Fold Up- or Down-Regulation AREL1", "setting": "gene AREL1, 20 ug/mL, vs. water-treated control", "value": "−1.0", "unit": "Fold"}, {"measurement": "Fold Up- or Down-Regulation ARRDC3", "setting": "gene ARRDC3, 20 ug/mL, vs. water-treated control", "value": 6.1, "unit": "Fold"}, {"measurement": "Fold Up- or Down-Regulation BAMBI", "setting": "gene BAMBI, 20 ug/mL, vs. water-treated control", "value": 6.2, "unit": "Fold"}, {"measurement": "Fold Up- or Down-Regulation CCL20", "setting": "gene CCL20, 20 ug/mL, vs. water-treated control", "value": 1.3, "unit": "Fold"}, {"measurement": "Fold Up- or Down-Regulation CDKN1A", "setting": "gene CDKN1A, 20 ug/mL, vs. water-treated control", "value": 1.5, "unit": "Fold"}, {"measurement": "Fold Up- or Down-Regulation CSF1", "setting": "gene CSF1, 20 ug/mL, vs. water-treated control", "value": "−1.3", "unit": "Fold"}, {"measurement": "Fold Up- or Down-Regulation CSF2", "setting": "gene CSF2, 20 ug/mL, vs. water-treated control", "value": "−1.2", "unit": "Fold"}, {"measurement": "Fold Up- or Down-Regulation CXCL1", "setting": "gene CXCL1, 20 ug/mL, vs. water-treated control", "value": 1.6, "unit": "Fold"}, {"measurement": "Fold Up- or Down-Regulation CXCL2", "setting": "gene CXCL2, 20 ug/mL, vs. water-treated control", "value": 1.2, "unit": "Fold"}, {"measurement": "Fold Up- or Down-Regulation CXCL3", "setting": "gene CXCL3, 20 ug/mL, vs. water-treated control", "value": 1.7, "unit": "Fold"}, {"measurement": "Fold Up- or Down-Regulation CXCL8", "setting": "gene CXCL8, 20 ug/mL, vs. water-treated control", "value": 1.1, "unit": "Fold"}, {"measurement": "Fold Up- or Down-Regulation CXCL10", "setting": "gene CXCL10, 20 ug/mL, vs. water-treated control", "value": 2.0, "unit": "Fold"}, {"measurement": "Fold Up- or Down-Regulation CYB561", "setting": "gene CYB561, 20 ug/mL, vs. water-treated control", "value": "−1.1", "unit": "Fold"}, {"measurement": "Fold Up- or Down-Regulation CYP1A1", "setting": "gene CYP1A1, 20 ug/mL, vs. water-treated control", "value": "−1.8", "unit": "Fold"}, {"measurement": "Fold Up- or Down-Regulation DDX5", "setting": "gene DDX5, 20 ug/mL, vs. water-treated control", "value": 1.0, "unit": "Fold"}, {"measurement": "Fold Up- or Down-Regulation DEFB1", "setting": "gene DEFB1, 20 ug/mL, vs. water-treated control", "value": 2.2, "unit": "Fold"}, {"measurement": "Fold Up- or Down-Regulation EPGN", "setting": "gene EPGN, 20 ug/mL, vs. water-treated control", "value": 2.3, "unit": "Fold"}, {"measurement": "Fold Up- or Down-Regulation FGF2", "setting": "gene FGF2, 20 ug/mL, vs. water-treated control", "value": "−1.2", "unit": "Fold"}, {"measurement": "Fold Up- or Down-Regulation FOS", "setting": "gene FOS, 20 ug/mL, vs. water-treated control", "value": 3.7, "unit": "Fold"}, {"measurement": "Fold Up- or Down-Regulation G2E3", "setting": "gene G2E3, 20 ug/mL, vs. water-treated control", "value": "−1.2", "unit": "Fold"}, {"measurement": "Fold Up- or Down-Regulation GDF15", "setting": "gene GDF15, 20 ug/mL, vs. water-treated control", "value": 1.9, "unit": "Fold"}, {"measurement": "Fold Up- or Down-Regulation GPADH", "setting": "gene GPADH (housekeeping), 20 ug/mL, vs. water-treated control", "value": "−1.2", "unit": "Fold"}, {"measurement": "Fold Up- or Down-Regulation GPX2", "setting": "gene GPX2, 20 ug/mL, vs. water-treated control", "value": "−1.1", "unit": "Fold"}, {"measurement": "Fold Up- or Down-Regulation HBEGF", "setting": "gene HBEGF, 20 ug/mL, vs. water-treated control", "value": 2.5, "unit": "Fold"}, {"measurement": "Fold Up- or Down-Regulation HECTD1", "setting": "gene HECTD1, 20 ug/mL, vs. water-treated control", "value": "−1.0", "unit": "Fold"}, {"measurement": "Fold Up- or Down-Regulation HERC1", "setting": "gene HERC1, 20 ug/mL, vs. water-treated control", "value": 1.1, "unit": "Fold"}, {"measurement": "Fold Up- or Down-Regulation HIF1AN", "setting": "gene HIF1AN, 20 ug/mL, vs. water-treated control", "value": "−1.3", "unit": "Fold"}, {"measurement": "Fold Up- or Down-Regulation HPRT1", "setting": "gene HPRT1 (housekeeping), 20 ug/mL, vs. water-treated control", "value": 1.0, "unit": "Fold"}, {"measurement": "Fold Up- or Down-Regulation HSP90B1", "setting": "gene HSP90B1, 20 ug/mL, vs. water-treated control", "value": 1.4, "unit": "Fold"}, {"measurement": "Fold Up- or Down-Regulation IFI44L", "setting": "gene IFI44L, 20 ug/mL, vs. water-treated control", "value": "−2.5", "unit": "Fold"}, {"measurement": "Fold Up- or Down-Regulation JUN", "setting": "gene JUN, 20 ug/mL, vs. water-treated control", "value": 1.2, "unit": "Fold"}, {"measurement": "Fold Up- or Down-Regulation JUNB", "setting": "gene JUNB, 20 ug/mL, vs. water-treated control", "value": 1.9, "unit": "Fold"}, {"measurement": "Fold Up- or Down-Regulation LTB4R", "setting": "gene LTB4R, 20 ug/mL, vs. water-treated control", "value": 1.1, "unit": "Fold"}, {"measurement": "Fold Up- or Down-Regulation MAFF", "setting": "gene MAFF, 20 ug/mL, vs. water-treated control", "value": 2.2, "unit": "Fold"}, {"measurement": "Fold Up- or Down-Regulation MAP1LC3B", "setting": "gene MAP1LC3B, 20 ug/mL, vs. water-treated control", "value": 1.5, "unit": "Fold"}, {"measurement": "Fold Up- or Down-Regulation MAPK14", "setting": "gene MAPK14, 20 ug/mL, vs. water-treated control", "value": "−1.1", "unit": "Fold"}, {"measurement": "Fold Up- or Down-Regulation MGAT1", "setting": "gene MGAT1, 20 ug/mL, vs. water-treated control", "value": "−1.7", "unit": "Fold"}, {"measurement": "Fold Up- or Down-Regulation MGAT5", "setting": "gene MGAT5, 20 ug/mL, vs. water-treated control", "value": 1.2, "unit": "Fold"}, {"measurement": "Fold Up- or Down-Regulation MOGS", "setting": "gene MOGS, 20 ug/mL, vs. water-treated control", "value": "−1.3", "unit": "Fold"}, {"measurement": "Fold Up- or Down-Regulation N4BP1", "setting": "gene N4BP1, 20 ug/mL, vs. water-treated control", "value": 1.3, "unit": "Fold"}, {"measurement": "Fold Up- or Down-Regulation NFKBIA", "setting": "gene NFKBIA, 20 ug/mL, vs. water-treated control", "value": 1.3, "unit": "Fold"}, {"measurement": "Fold Up- or Down-Regulation PELI1", "setting": "gene PELI1, 20 ug/mL, vs. water-treated control", "value": 1.4, "unit": "Fold"}, {"measurement": "Fold Up- or Down-Regulation PLAUR", "setting": "gene PLAUR, 20 ug/mL, vs. water-treated control", "value": 9.7, "unit": "Fold"}, {"measurement": "Fold Up- or Down-Regulation PPP1R15A", "setting": "gene PPP1R15A, 20 ug/mL, vs. water-treated control", "value": 2.5, "unit": "Fold"}, {"measurement": "Fold Up- or Down-Regulation PTGFRN", "setting": "gene PTGFRN, 20 ug/mL, vs. water-treated control", "value": "−2.6", "unit": "Fold"}, {"measurement": "Fold Up- or Down-Regulation PTGS2", "setting": "gene PTGS2, 20 ug/mL, vs. water-treated control", "value": 2.4, "unit": "Fold"}, {"measurement": "Fold Up- or Down-Regulation PTX3", "setting": "gene PTX3, 20 ug/mL, vs. water-treated control", "value": 1.8, "unit": "Fold"}, {"measurement": "Fold Up- or Down-Regulation REL", "setting": "gene REL, 20 ug/mL, vs. water-treated control", "value": "−1.1", "unit": "Fold"}, {"measurement": "Fold Up- or Down-Regulation RSAD2", "setting": "gene RSAD2, 20 ug/mL, vs. water-treated control", "value": 1.2, "unit": "Fold"}, {"measurement": "Fold Up- or Down-Regulation SAMD9L", "setting": "gene SAMD9L, 20 ug/mL, vs. water-treated control", "value": 1.5, "unit": "Fold"}, {"measurement": "Fold Up- or Down-Regulation SOD2", "setting": "gene SOD2, 20 ug/mL, vs. water-treated control", "value": "−1.4", "unit": "Fold"}, {"measurement": "Fold Up- or Down-Regulation SPRR2B", "setting": "gene SPRR2B, 20 ug/mL, vs. water-treated control", "value": 6.5, "unit": "Fold"}, {"measurement": "Fold Up- or Down-Regulation TGFB1", "setting": "gene TGFB1, 20 ug/mL, vs. water-treated control", "value": "−1.2", "unit": "Fold"}, {"measurement": "Fold Up- or Down-Regulation TNF", "setting": "gene TNF, 20 ug/mL, vs. water-treated control", "value": 1.2, "unit": "Fold"}, {"measurement": "Fold Up- or Down-Regulation TNFAIP3", "setting": "gene TNFAIP3, 20 ug/mL, vs. water-treated control", "value": 2.6, "unit": "Fold"}, {"measurement": "Fold Up- or Down-Regulation UBE2S", "setting": "gene UBE2S, 20 ug/mL, vs. water-treated control", "value": "−1.1", "unit": "Fold"}, {"measurement": "Fold Up- or Down-Regulation UBE3B", "setting": "gene UBE3B, 20 ug/mL, vs. water-treated control", "value": 1.4, "unit": "Fold"}, {"measurement": "Fold Up- or Down-Regulation UBE4B", "setting": "gene UBE4B, 20 ug/mL, vs. water-treated control", "value": "−1.4", "unit": "Fold"}, {"measurement": "Fold Up- or Down-Regulation UBE20", "setting": "gene UBE20, 20 ug/mL, vs. water-treated control", "value": 2.5, "unit": "Fold"}, {"measurement": "Fold Up- or Down-Regulation VCP", "setting": "gene VCP, 20 ug/mL, vs. water-treated control", "value": 1.2, "unit": "Fold"}, {"measurement": "Fold Up- or Down-Regulation VEGFA", "setting": "gene VEGFA, 20 ug/mL, vs. water-treated control", "value": 2.5, "unit": "Fold"}, {"measurement": "fold value changes of significantly (p<0.05) upregulated or downregulated genes", "setting": "genes ARRDC3, BAMBI, CXCL10, DEFB1, EPGN, FOS, HBEGF, IFI44L, MAFF, PLAUR, PPP1R15A, PTGS2, SPRR2B, TNFAIP3, UBE20, VEGFA, 20 ug/mL", "value": "≥ 2.0", "unit": "×"}]}]}
